The record followed here is PubChem BioAssay AID330 (DTP/NCI, 2004).

The subject of the experiment is P388 leukemia ip, CD2F1 mice, survival T/C. Description: NCI In Vivo Anticancer Drug Screen. Data for tumor model P388 Leukemia (intraperitoneal) in CD2F1 (CDF1) mice. Particulars: endpoint: median survival time, higher = longer survival. The essentials:
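Mice carrying the transplanted tumor received test compound or vehicle. Survival was recorded in each group, and the value is the treated-group measurement divided by that of the vehicle-treated control group.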

[1] abbreviates: dose: 25.0 mg/kg/injection, schedule: Q01DX009 (ip), vehicle: saline with Tween-80.
[2] abbreviates: dose: 50.0 mg/kg/injection, schedule: Q01DX005 (ip), vehicle: saline.
Where [3] appears, read: dose: 50.0 mg/kg/injection, schedule: Q01DX009 (ip), vehicle: saline with Tween-80.
Where [4] appears, read: dose: 100.0 mg/kg/injection, schedule: Q01DX005 (ip), vehicle: saline.
The mark [5] stands for this setting: dose: 100.0 mg/kg/injection, schedule: Q01DX009 (ip), vehicle: saline with Tween-80.
[6] abbreviates: dose: 200.0 mg/kg/injection, schedule: Q01DX009 (ip), vehicle: saline with Tween-80.
The mark [7] stands for this setting: dose: 12.5 mg/kg/injection, schedule: Q01DX009 (ip), vehicle: distilled water + Tween-80.
The mark [8] stands for this setting: dose: 25.0 mg/kg/injection, schedule: Q01DX009 (ip), vehicle: distilled water + Tween-80.
Setting [9] is: dose: 100.0 mg/kg/injection, schedule: Q01DX009 (ip), vehicle: distilled water + Tween-80.
The mark [10] stands for this setting: dose: 200.0 mg/kg/injection, schedule: Q01DX009 (ip), vehicle: distilled water + Tween-80.
[11] abbreviates: dose: 50.0 mg/kg/injection, schedule: Q01DX009 (ip), vehicle: other.
Setting [12] is: dose: 100.0 mg/kg/injection, schedule: Q01DX009 (ip), vehicle: other.
[13] abbreviates: dose: 50.0 mg/kg/injection, schedule: Q01DX009 (ip), vehicle: Klucel (hydroxypropylcellulose) (HPC).
The mark [14] stands for this setting: dose: 100.0 mg/kg/injection, schedule: Q01DX009 (ip), vehicle: Klucel (hydroxypropylcellulose) (HPC).
Setting [15] is: dose: 200.0 mg/kg/injection, schedule: Q01DX009 (ip), vehicle: Klucel (hydroxypropylcellulose) (HPC).
Where [16] appears, read: dose: 12.5 mg/kg/injection, schedule: Q01DX009 (ip), vehicle: Klucel (hydroxypropylcellulose) (HPC).
The mark [17] stands for this setting: dose: 25.0 mg/kg/injection, schedule: Q01DX009 (ip), vehicle: Klucel (hydroxypropylcellulose) (HPC).
Setting [18] is: dose: 50.0 mg/kg/injection, schedule: Q01DX005 (ip), vehicle: saline with Tween-80.
Where [19] appears, read: dose: 100.0 mg/kg/injection, schedule: Q01DX005 (ip), vehicle: saline with Tween-80.

Where “and” joins values, the source holds several entries; their conditions need not be identical. Equal values may be shown once. Toxic doses and inconclusive results are not listed.

In the case of `CC(N)C(=O)NC(C(=O)O)C(C)C` (stereo not drawn), the T/C runs as follows: under setting [1], 102 % of control; under setting [2], 93 % of control; under setting [3], 100 % of control; under setting [4], 100 % of control; under setting [5], 96 % of control; (dose: 200.0 mg/kg/injection, schedule: Q01DX005 (ip), vehicle: saline) 98 % of control. Moreover, the T/C under setting [6] was 111 % of control.

Regarding `CN(C)S(=O)(=O)N1CCOCC1`, the T/C (dose: 50.0 mg/kg/injection, schedule: Q04DX003 (ip), vehicle: Klucel (hydroxypropylcellulose) (HPC)) is 95 % of control; the T/C (dose: 100.0 mg/kg/injection, schedule: Q04DX003 (ip), vehicle: Klucel (hydroxypropylcellulose) (HPC)) was 101 % of control; the T/C (dose: 200.0 mg/kg/injection, schedule: Q04DX003 (ip), vehicle: Klucel (hydroxypropylcellulose) (HPC)) is 93 % of control; the T/C (dose: 400.0 mg/kg/injection, schedule: Q04DX003 (ip), vehicle: Klucel (hydroxypropylcellulose) (HPC)) is 110 % of control.

Turning to `CNC(=O)OCC1=C(COC(=O)NC)C2OC1C(C(=O)OC)=C2c1ccc(Cl)cc1` (stereo not drawn), the T/C by setting is: (dose: 1.56 mg/kg/injection, schedule: Q01DX009 (ip), vehicle: distilled water + Tween-80) 100 % of control; (dose: 3.13 mg/kg/injection, schedule: Q01DX009 (ip), vehicle: distilled water + Tween-80) 92 % of control; (dose: 6.25 mg/kg/injection, schedule: Q01DX009 (ip), vehicle: distilled water + Tween-80) 108 % of control; under setting [7], 90 % of control and 94 % of control; under setting [8], 88 % of control; (dose: 50.0 mg/kg/injection, schedule: Q01DX009 (ip), vehicle: distilled water + Tween-80) 88 % of control. Moreover, the T/C under setting [9] was 88 % of control and the T/C under setting [10] is 101 % of control.

As for `O=C1OC(c2ccc(Cl)cc2)=N/C1=C\c1ccccc1`, the T/C runs as follows: under setting [3], 120 % of control; under setting [5], 90 % of control; under setting [6], 100 % of control.

In the case of `O=P(=O)OP(=O)=O.[O]=[W](=[O])=[O]`, the T/C by setting is: under setting [1], 100 % of control; under setting [3], 100 % of control; under setting [5], 95 % of control.

On to `C=CCOc1nc(OCC=C)nc(OCC=C)n1`, for which the T/C runs as follows: under setting [5], 97 % of control; under setting [6], 93 % of control.

With `CC1CCCC2CCCOCN12` (stereo not drawn), the T/C (dose: 12.5 mg/kg/injection, schedule: Q01DX005 (ip), vehicle: Klucel (hydroxypropylcellulose) (HPC)) is 107 % of control; the T/C (dose: 12.5 mg/kg/injection, schedule: Q01DX005 (ip), vehicle: saline) was 103 % of control; the T/C (dose: 25.0 mg/kg/injection, schedule: Q01DX005 (ip), vehicle: Klucel (hydroxypropylcellulose) (HPC)) was 106 % of control; the T/C (dose: 25.0 mg/kg/injection, schedule: Q01DX005 (ip), vehicle: saline) was 99 % of control; the T/C (dose: 50.0 mg/kg/injection, schedule: Q01DX005 (ip), vehicle: Klucel (hydroxypropylcellulose) (HPC)) is 104 % of control; the T/C under setting [2] is 100 % of control and 104 % of control. Also, the T/C runs as follows: (dose: 100.0 mg/kg/injection, schedule: Q01DX005 (ip), vehicle: Klucel (hydroxypropylcellulose) (HPC)) 101 % of control; under setting [4], 122 % of control and 98 % of control.

Take `COc1cc2c(cc1OC)C(NC=O)CCC2` (stereo not drawn): the T/C (dose: 25.0 mg/kg/injection, schedule: Q01DX009 (ip), vehicle: other) is 101 % of control; the T/C under setting [11] was 104 % of control; the T/C under setting [12] is 100 % of control; the T/C (dose: 200.0 mg/kg/injection, schedule: Q01DX009 (ip), vehicle: other) was 101 % of control; the T/C (dose: 400.0 mg/kg/injection, schedule: Q01DX009 (ip), vehicle: other) is 86 % of control.

As for `NC(Cc1ccc(Cl)cc1)c1nn[nH]n1` (stereo not drawn), the T/C was 99 % of control under setting [1], 99 % of control under setting [3] and 101 % of control under setting [5].

Turning to `COC(=O)Nc1nc2ccc(SC)cc2c(=O)[nH]1`, the T/C under setting [13] is 103 % of control and 105 % of control; the T/C under setting [14] is 113 % of control.

On to `COC(=O)Nc1cn2cc(C(=O)c3cccs3)ccc2n1`, for which the T/C under setting [13] is 113 % of control and the T/C under setting [15] is 151 % of control.

On to `O=C(Nc1ccccc1)c1csc(-c2csc(CCNC(=O)C(F)(F)F)n2)n1`, for which the T/C runs as follows: under setting [7], 88 % of control; under setting [8], 88 % of control; under setting [9], 88 % of control; under setting [10], 89 % of control.

On to `CCOC(=O)CCCCCNC(=O)N1c2c(nc(N)[nH]c2=O)NCC1CNc1ccc(C(=O)NC(CCC(=O)O)C(=O)O)cc1` (stereo not drawn), for which the T/C is 97 % of control (dose: 100.0 mg/kg/injection, schedule: Q01DX009 (ip), vehicle: sodium bicarbonate); 91 % of control (dose: 200.0 mg/kg/injection, schedule: Q01DX009 (ip), vehicle: sodium bicarbonate); 97 % of control (dose: 400.0 mg/kg/injection, schedule: Q01DX009 (ip), vehicle: sodium bicarbonate).

For `O=c1oc(-c2cc([N+](=O)[O-])cc([N+](=O)[O-])c2Cl)nc2ccccc12`, the T/C is, setting by setting: under setting [16], 103 % of control and 110 % of control; under setting [17], 105 % of control and 110 % of control; under setting [13], 103 % of control and 94 % of control; under setting [14], 105 % of control.

Regarding `COc1ccccc1NC(=O)Cc1nc(=O)[nH]c(=O)[nH]1`, the T/C was 100 % of control under setting [16]; 90 % of control under setting [17]; 101 % of control under setting [13]; 102 % of control under setting [14]; 96 % of control under setting [15].

Regarding `N#CC(C(=O)O)C(c1c(Cl)cccc1Cl)C(C#N)C(=O)O` (stereo not drawn), the T/C was 97 % of control under setting [18] and 89 % of control under setting [19].

For `CC(=O)N(CCCN1C(=O)c2ccccc2C1=O)c1ccc2c(c1)c(-c1ccccc1)nc1cc([N+](=O)[O-])ccc12`, the T/C (dose: 3.13 mg/kg/injection, schedule: Q01DX009 (ip), vehicle: other) was 98 % of control; the T/C (dose: 6.25 mg/kg/injection, schedule: Q01DX009 (ip), vehicle: other) was 95 % of control; the T/C (dose: 12.5 mg/kg/injection, schedule: Q01DX009 (ip), vehicle: other) is 87 % of control; the T/C under setting [11] is 106 % of control; the T/C under setting [12] is 96 % of control.

As for `CC1C(=O)C23CC1CCC2C12COC(=O)C1C(C)(C)C(=O)CC2OC3=O` (stereo not drawn), the T/C is, setting by setting: (dose: 50.0 mg/kg/injection, schedule: Q04DX002 (ip), vehicle: saline with Tween-80) 105 % of control; (dose: 100.0 mg/kg/injection, schedule: Q04DX002 (ip), vehicle: saline with Tween-80) 93 % of control; (dose: 200.0 mg/kg/injection, schedule: Q04DX002 (ip), vehicle: saline with Tween-80) 94 % of control.

On to `NC(=O)c1csc(-c2ccc(CO)o2)n1`, for which the T/C by setting is: under setting [18], 95 % of control; under setting [19], 86 % of control.

Consider `CC1(O)CC2(O)C=CC3=C(C(=O)c4cccc(O)c4C3=O)C2(O)C(=O)C1O` (stereo not drawn), for which the T/C is, setting by setting: (dose: 0.75 mg/kg/injection, schedule: Q01DX005 (ip), vehicle: distilled water + Tween-80 + alcohol) 107 % of control; (dose: 1.5 mg/kg/injection, schedule: Q01DX005 (ip), vehicle: distilled water + Tween-80 + alcohol) 114 % of control.

For the compound `c1ccc(Cn2cc(CCc3ccncc3)c3ccccc32)cc1`, the T/C (dose: 25.0 mg/kg/injection, schedule: Q01DX009 (ip), vehicle: saline) was 100 % of control; the T/C (dose: 50.0 mg/kg/injection, schedule: Q01DX009 (ip), vehicle: saline) is 100 % of control; the T/C (dose: 100.0 mg/kg/injection, schedule: Q01DX009 (ip), vehicle: saline) was 100 % of control.

As for `CC(C)(C)c1ccc(OP(=S)(N/N=C/c2ccccc2O)Oc2ccc(C(C)(C)C)cc2)cc1`, the T/C is, setting by setting: (dose: 12.5 mg/kg/injection, schedule: Q01DX009 (ip), vehicle: saline with Tween-80) 94 % of control; under setting [1], 88 % of control; under setting [3], 93 % of control and 95 % of control; under setting [5], 95 % of control; under setting [6], 95 % of control.

Regarding `Fc1ccccc1C=NC12CC3CC(CC(C3)C1)C2`, the T/C runs as follows: under setting [3], 100 % of control; under setting [5], 102 % of control; under setting [6], 108 % of control.
